Laboratory results from patent publication US5786332A, “Cytokine restraining agents and methods of use in pathologies and conditions associated with altered cytokine levels” (Trega Biosciences, Inc., priority 1995, dated 1998).

Key:
Type in all cases: in vivo
[1] = tested on: Sprague-Dawley rats; test: Interleukin-1β-induced hyperalgesia (paw pressure); details: 1 μg IP; 2 hr after IL-1β intra plantar
Procedure: These experiments were performed using a modification of the methods described by Poole et al., Br. J. Pharmacol. 106:489-492 (1992); Follenfant et al., Br. J. Pharmacol. 98:41-43 (1989); and Randall and Sellito, Arch. Internatl. Pharmacodyn. 111:409-419 (1957), each of which is incorporated herein by reference. Adult male Sprague-Dawley rats (175-275 g) were tested for hyperalgesia by a paw pressure technique using variable pressure instrumentation (IITC Life Sciences; Woodland Hills, Calif.). Rats were acclimated to the housing environment and were handled for three days prior to beginning a training session. On the day before the hyperalgesia experiments was to begin, each rat was placed into a sock and two variable paw pressure tests were performed 15 min apart.
Approximately 5-10% of the rats were non-responders and were eliminated from further experiments.
Animals that responded to the paw pressure were pretreated by IP injection of various concentrations of EX-2 in a volume of 1 ml/kg (treated) or saline, alone (control). After 20 min, 100 μl of IL-1β (1U/100 μl) was administered to rats via intra plantar injection. Two hr after IL-1 administration, rats were subjected to two additional paw pressure tests and the increase in mm Hg of pressure that could be applied to the EX-2-treated rats as compared to the control rats was determined.

[2] = tested on: Balb/c mice; test: Lipopolysaccharide-induced lethality (IP dosing); details: 11 × 300 μg/mouse IP (3.3 mg total); 0.6 mg LPS
Procedure: These experiments were performed based on information reported by Rivier et al., Endocrinology 125:2800-2805 (1989), which is incorporated herein by reference. Adult female Balb/c mice were provided food and water ad libitum. Mice were injected IP every four hr for 40 hr with 30 to 300 μg EX-2, EX-3 or EX-4 in 0.2 ml saline (treated group) or with 0.2 ml saline, alone (control group) (10 mice per group). Immediately following the first injection, 0.6 mg LPS endotoxin in 0.2 ml saline was administered to each mouse. Following LPS injection, EX-2 or saline was administered to the treated mice or the control mice, respectively, every 4 hr for 36 hr.

[3] = tested on: IL-6; test: Reduction of LPS-induced Interleukin-6 levels in mice (ELISA); details: 300 μg/mouse; LPS-treated mice vs untreated control
Procedure: Balb/c mice were grouped and treated as described in Example III, above. Blood samples were obtained from the orbital sinus at various times up to six hr and serum was collected and diluted as described above. A 100 μl aliquot was assayed for IL-6 levels using an IL-6-specific ELISA by a modification of the method of Starnes et al., J. Immunol. 145:4185-4194 (1990), which is incorporated herein by reference.
The mean (+/-SEM) IL-6 level in six mice from each group was determined and the percent reduction in IL-6 was calculated.

[4] = tested on: Sprague-Dawley rats; test: Nephrotoxic serum glomerulonephritis, albuminuria; details: EX-2 100 μg/kg per injection 3 times per day; 24 hr albumin excretion
Procedure: C. Glomerulonephritis: Male Sprague-Dawley rats (weight 194-248 g) were immunized by subcutaneous injection of 1 mg normal rabbit IgG (Sigma Chemical Co.) in Freund's complete adjuvant (Sigma Chemical Co.). EX-2 was administered 3 times per day (100 μg/kg per injection) throughout the duration of the experiment. Seven days later, the rats were injected with 1.5 ml of nephrotoxic serum iv via dorsal penile vein. Urine, plasma, and serum were collected before injection of nephrotoxic serum at 4, 6, 24, 48, and 96 hr thereafter. […] Albuminuria was quantified by immunoelectrophoresis.

[5] = tested on: Sprague-Dawley rats; test: Renal ischemia-reperfusion injury; details: I/R + EX-2 (50 or 500 μg/kg iv, not specified)
Procedure: A. Ischemia-Reperfusion Injury: These experiments were performed to determine if a peptide which has cytokine restraining properties, EX-2, can ameliorate the reperfusion-induced vasoconstriction and reduction in glomerular filtration rate that results from clamping of the renal artery. As a comparison, the NSAID ketorolac was utilized in the same model.
Sprague-Dawley rats (250-300 g) were anesthetized with Inactin® (120 mg/kg). After deep anesthesia was assured, the rats were cannulated in the trachea with polyethylene (PE) tubing (PE 240), jugular vein, femoral artery, bladder (PE 50 for previous 3 cannulations), and left ureter (stretched PE 50). Once cannulation was completed, a 2 cm flank incision above the left kidney was performed and the renal pelvis and vascular bundle were exposed. […]
Just prior to clamping, EX-2 (50 or 500 μg/kg), ketorolac (KETO, 1 mg/kg), or vehicle was administered intravenously (iv) After 1 hr of clamping (ischemia), the clamp was gently removed with care taken to avoid damaging either the renal artery or nerves. […] After 60 min of reperfusion, glomerular filtration rate (GFR), renal plasma flow (RPF) and renal vascular resistance (RVR) were assessed in two 30 min collection periods. […] Contralateral renal function was utilized to determine the stability of the rat's renal function during the measured period.

## Ac-Nle-Gln-His-(D)Phe-Arg-(D)Trp-Gly-NH2 [EX-2]
[1]
  Reduction in IL-1-induced Hyperalgesia (increase in tolerated paw pressure vs control): 125%
[2]
  Inhibition of LPS-induced Lethality (increase in survival vs control): 83%
[3]
  Reduction in IL-6 levels: 60%
[4]
  % Reduction of induced increase in Albumin (mg/day), Glomerulonephritis: 62%
[5]; 1 hr clamp, after 60 min reperfusion, I/R + PBS 0.2 ± 0.1
  GFR (glomerular filtration rate): 0.5 ± 0.1 ml/mm
[5]; I/R + PBS 0.8 ± 0.2
  RPF (renal plasma flow): 2.3 ± 0.3 ml/mm
